From patent US10925261B2, “Method for inducing feminization in Tilapia aurea via immersion with ethinyl estradiol” (GALLANT OCEAN INTERNATIONAL, INC., priority 2018, dated 2021)

System: Tilapia aurea fry
Assay: Induction of feminization in Tilapia aurea fry via immersion treatment with ethinyl estradiol
Assay type: in vivo
Settings: 3 minutes, 25° C., 3 dph fry
Protocol: Males and females of Tilapia aurea (about 12 months of age) provided by Prof. Chien-Hsien Kuo from the Department of Aquatic Biosciences at National Chiayi University (Taiwan) served as the parent fish in the following example. The male and female fish were separately raised in concrete ponds provided with water maintained at 25° C. and about 6 mg/L of dissolved oxygen under natural light, and were provided with feed ad libitum. Mating was carried out with a male-to-female ratio of 2:5. Fertilized eggs were flushed out from the oral cavity of the female fish to be collected, followed by incubation at 25° C. for 7 to 14 days. 3 dph fish fry were obtained.
Two immersion solutions respectively having ethinyl estradiol concentrations shown in Table 1 below were each prepared as follows. An appropriate amount of ethinyl estradiol was dissolved in 10 mL of ethanol, followed by mixing with 5 L of water in a water tank.
5 trials of feminization induction were conducted using a respective one of the two immersion solutions. Specifically, for each trial of feminization induction, the 3 dph Tilapia aurea fry (the amount thereof is shown in Table 1) were placed in the respective immersion solution at 25° C. for 3 minutes. […] After seven months of breeding, the gender of all the surviving fish was observed, and the feminization rate (i.e. the percentage of females) was calculated.

In the case of C#C[C@]1(O)CC[C@H]2[C@@H]3CCc4cc(O)ccc4[C@H]3CC[C@@]21C [ethinyl estradiol], the “Feminization rate (%) (percentage of females)” value (immersion 142.85 ppm, gender observed after seven months of breeding, trial 5) is reported as 87% and the “Feminization rate of each trial” value (immersion 142.85 to 200 ppm, all 5 trials) is reported as at least 87%.
